{"source": "patent US9422293B2", "about": "(priority 2006, dated 2016)", "note": "Where a name gives a salt, the structure may show the parent alone.", "data": [{"target": "rat TRPV1 (Rattus norvegicus (Rat), UniProt O35433)", "sequence (O35433 whole entry)": "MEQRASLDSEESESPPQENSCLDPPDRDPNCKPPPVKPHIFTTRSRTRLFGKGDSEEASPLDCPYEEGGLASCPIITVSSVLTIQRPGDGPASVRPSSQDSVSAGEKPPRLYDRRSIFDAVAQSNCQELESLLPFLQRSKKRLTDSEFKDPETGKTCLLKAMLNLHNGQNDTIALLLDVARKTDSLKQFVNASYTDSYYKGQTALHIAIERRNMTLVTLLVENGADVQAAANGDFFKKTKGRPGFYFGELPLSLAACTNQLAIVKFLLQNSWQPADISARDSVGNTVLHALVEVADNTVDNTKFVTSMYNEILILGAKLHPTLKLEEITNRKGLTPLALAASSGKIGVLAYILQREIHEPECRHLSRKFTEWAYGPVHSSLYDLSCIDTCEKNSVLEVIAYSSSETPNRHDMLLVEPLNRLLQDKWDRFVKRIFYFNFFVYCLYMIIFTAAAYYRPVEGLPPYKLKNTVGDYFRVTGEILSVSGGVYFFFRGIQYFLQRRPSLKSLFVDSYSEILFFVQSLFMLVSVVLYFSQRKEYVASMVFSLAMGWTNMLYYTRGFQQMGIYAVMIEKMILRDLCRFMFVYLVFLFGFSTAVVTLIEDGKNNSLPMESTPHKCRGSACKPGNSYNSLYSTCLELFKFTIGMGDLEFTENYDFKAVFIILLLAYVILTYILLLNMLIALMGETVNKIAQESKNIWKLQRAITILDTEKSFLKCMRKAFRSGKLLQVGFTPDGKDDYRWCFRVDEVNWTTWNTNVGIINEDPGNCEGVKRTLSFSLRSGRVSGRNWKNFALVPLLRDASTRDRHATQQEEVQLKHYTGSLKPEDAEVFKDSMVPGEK", "settings": "read-out: Rat IC50", "units": {"IC50": "µM"}, "values": [{"smiles": "FC(F)(F)c1ccc(Nc2nc(N3CCCCC3)nc3c2CCN(c2ncccc2C(F)(F)F)CC3)cc1", "note": "[Example 39, [2-Piperidin-1-yl-7-(3-trifluoromethyl-pyridin-2-yl)-6,7,8,9-tetrahydro-5H-pyrimido[4,5-d]azepin-4-yl]-(4-trifluoromethyl-phenyl)-amine]", "IC50": 0.018}, {"smiles": "FC(F)(F)c1ccc(Nc2nc(SCc3ccccc3)nc3c2CCN(c2ncccc2C(F)(F)F)CC3)cc1", "note": "[Example 353, 2-[(Phenylmethyl)sulfanyl]-N-[4-(trifluoromethyl)phenyl]-7-[3-(trifluoromethyl)pyridin-2-yl]-6,7,8,9-tetrahydro-5H-pyrimido[4,5-d]azepin-4-amine]", "IC50": 0.24}, {"smiles": "CSc1nc2c(c(Nc3ccc(C(F)(F)F)cc3)n1)CCN(c1ncccc1C(F)(F)F)CC2", "note": "[Example 52, [2-Methylsulfanyl-7-(3-trifluoromethyl-pyridin-2-yl)-6,7,8,9-tetrahydro-5H-pyrimido[4,5-d]azepin-4-yl]-(4-trifluoromethyl-phenyl)-amine]", "IC50": 0.053}, {"smiles": "FC(F)(F)c1ccc(Nc2nc(N3CCOCC3)nc3c2CCN(c2ncccc2C(F)(F)F)CC3)cc1", "note": "[Example 40, [2-Morpholin-4-yl-7-(3-trifluoromethyl-pyridin-2-yl)-6,7,8,9-tetrahydro-5H-pyrimido[4,5-d]azepin-4-yl]-(4-trifluoromethyl-phenyl)-amine]", "IC50": 0.056}, {"smiles": "OC[C@@H]1CCCN1c1nc2c(c(Nc3ccc(C(F)(F)F)cn3)n1)CCN(c1ncccc1C(F)(F)F)CC2", "note": "[Example 262, [(2S)-1-(7-[3-(Trifluoromethyl)pyridin-2-yl]-4-{[5-(trifluoromethyl)pyridin-2-yl]amino}-6,7,8,9-tetrahydro-5H-pyrimido[4,5-d]azepin-2-yl)pyrrolidin-2-yl]methanol hydrochloride salt]", "IC50": 1.64}, {"smiles": "CN1CCCc2ccc(Nc3nc(OC4CCCCC4)nc4c3CCN(c3ncccc3C(F)(F)F)CC4)cc21", "note": "[Example 328, 2-(Cyclohexyloxy)-N-(1-methyl-1,2,3,4-tetrahydroquinolin-7-yl)-7-[3-(trifluoromethyl)pyridin-2-yl]-6,7,8,9-tetrahydro-5H-pyrimido[4,5-d]azepin-4-amine]", "IC50": 0.25}, {"smiles": "CN1CCC(C)(C)c2ccc(Nc3nc(SCc4ccccc4)nc4c3CCN(c3ncccc3C(F)(F)F)CC4)cc21", "note": "[Example 370, 2-[(Phenylmethyl)sulfanyl]-7-[3-(trifluoromethyl)pyridin-2-yl]-N-(1,4,4-trimethyl-1,2,3,4-tetrahydroquinolin-7-yl)-6,7,8,9-tetrahydro-5H-pyrimido[4,5-d]azepin-4-amine]", "IC50": 2.61}, {"smiles": "COC(=O)C(C)(C)c1ccc(Nc2nc(N3CCCCC3)nc3c2CCN(c2ncccc2C(F)(F)F)CC3)cc1", "note": "[Example 175, Methyl 2-methyl-2-[4-({2-piperidin-1-yl-7-[3-(trifluoromethyl)pyridin-2-yl]-6,7,8,9-tetrahydro-5H-pyrimido[4,5-d]azepin-4-yl}amino)phenyl]propanoate]", "IC50": 0.08}, {"smiles": "CC(C)c1nc2c(c(Nc3ccc(C#N)cc3)n1)CCN(c1ncccc1C(F)(F)F)CC2", "note": "[Example 97, 4-[2-Isopropyl-7-(3-trifluoromethyl-pyridin-2-yl)-6,7,8,9-tetrahydro-5H-pyrimido[4,5-d]azepin-4-ylamino]-benzonitrile]", "IC50": 0.49}, {"smiles": "CC(C)c1nc2c(c(NCCc3ccc(F)cc3)n1)CCN(c1ncccc1C(F)(F)F)CC2", "note": "[Example 12, [2-(4-Fluoro-phenyl)-ethyl]-[2-isopropyl-7-(3-trifluoromethyl-pyridin-2-yl)-6,7,8,9-tetrahydro-5H-pyrimido[4,5-d]azepin-4-yl]-amine]", "IC50": 0.95}, {"smiles": "FC(F)(F)c1ccc(Nc2nc(-c3ccsc3)nc3c2CCN(c2ncccc2C(F)(F)F)CC3)cc1", "note": "[Example 150, 2-(3-Thienyl)-N-[4-(trifluoromethyl)phenyl]-7-[3-(trifluoromethyl)pyridin-2-yl]-6,7,8,9-tetrahydro-5H-pyrimido[4,5-d]azepin-4-amine]", "IC50": 0.2}, {"smiles": "O=S(=O)(c1ccc(Nc2nc(SCc3ccccc3)nc3c2CCN(c2ncccc2C(F)(F)F)CC3)cc1)C(F)(F)F", "note": "[Example 359, 2-[(Phenylmethyl)sulfanyl]-7-[3-(trifluoromethyl)pyridin-2-yl]-N-{4-[(trifluoromethyl)sulfonyl]phenyl}-6,7,8,9-tetrahydro-5H-pyrimido[4,5-d]azepin-4-amine]", "IC50": 0.32}, {"smiles": "CC(C)c1nc2c(c(Nc3ccc(C(F)(F)F)c(Cl)n3)n1)CCN(c1ncccc1C(F)(F)F)CC2", "note": "[Example 188, N-[6-Chloro-5-(trifluoromethyl)pyridin-2-yl]-2-(1-methylethyl)-7-[3-(trifluoromethyl)pyridin-2-yl]-6,7,8,9-tetrahydro-5H-pyrimido[4,5-d]azepin-4-amine hydrochloride salt]", "IC50": 1.59}, {"smiles": "CC(C)c1nc2c(c(NCc3ccc(C(F)(F)F)nc3)n1)CCN(c1ncccc1C(F)(F)F)CC2", "note": "[Example 116, 2-(1-Methylethyl)-7-[3-(trifluoromethyl)pyridin-2-yl]-N-{[6-(trifluoromethyl)pyridin-3-yl]methyl}-6,7,8,9-tetrahydro-5H-pyrimido[4,5-d]azepin-4-amine]", "IC50": 7.03}, {"smiles": "O=S1(=O)CCCCN1c1nc2c(c(Nc3ccc(C(F)(F)F)cc3)n1)CCN(c1ncccc1C(F)(F)F)CC2", "note": "[Example 212, 2-(1,1-Dioxido-1,2-thiazinan-2-yl)-N-[4-(trifluoromethyl)phenyl]-7-[3-(trifluoromethyl)pyridin-2-yl]-6,7,8,9-tetrahydro-5H-pyrimido[4,5-d]azepin-4-amine trifluoroacetic acid salt]", "IC50": 0.22}, {"smiles": "Cc1nc2c(c(Nc3ccc(C(C)(C)C)cc3)n1)CCN(c1ncccc1C(F)(F)F)CC2", "note": "[Example 15, (4-tert-Butyl-phenyl)-[2-methyl-7-(3-trifluoromethyl-pyridin-2-yl)-6,7,8,9-tetrahydro-5H-pyrimido[4,5-d]azepin-4-yl]-amine]", "IC50": 0.046}, {"smiles": "CC(C)c1nc2c(c(Nc3ccc(Oc4ccccc4)cc3)n1)CCN(c1ncccc1C(F)(F)F)CC2", "note": "[Example 25, [2-Isopropyl-7-(3-trifluoromethyl-pyridin-2-yl)-6,7,8,9-tetrahydro-5H-pyrimido[4,5-d]azepin-4-yl]-(4-phenoxy-phenyl)-amine]", "IC50": 0.77}, {"smiles": "CC(C)c1nc2c(c(Nc3ccc(Cl)c(Cl)c3)n1)CCN(c1ncccc1C(F)(F)F)CC2", "note": "[Example 109, (3,4-Dichloro-phenyl)-[2-isopropyl-7-(3-trifluoromethyl-pyridin-2-yl)-6,7,8,9-tetrahydro-5H-pyrimido[4,5-d]azepin-4-yl]-amine]", "IC50": 0.58}, {"smiles": "FC(F)(F)c1ccc(Nc2nc(N3CCC3)nc3c2CCN(c2ncccc2C(F)(F)F)CC3)cn1", "note": "[Example 217, 2-Azetidin-1-yl-7-[3-(trifluoromethyl)pyridin-2-yl]-N-[6-(trifluoromethyl)pyridin-3-yl]-6,7,8,9-tetrahydro-5H-pyrimido[4,5-d]azepin-4-amine]", "IC50": 0.39}, {"smiles": "CC(C)c1nc2c(c(Nc3ccc(C(=O)N(C)C)cc3)n1)CCN(c1ncccc1C(F)(F)F)CC2", "note": "[Example 127, N,N-Dimethyl-4-({2-(1-methylethyl)-7-[3-(trifluoromethyl)pyridin-2-yl]-6,7,8,9-tetrahydro-5H-pyrimido[4,5-d]azepin-4-yl}amino)benzamide]", "IC50": 19.2}, {"smiles": "CC(C)c1nc2c(c(Nc3ccc(C(C)(C)C)cc3)n1)CCN(c1ncccc1N)CC2", "note": "[Example 284, 7-(3-Aminopyridin-2-yl)-N-[4-(1,1-dimethylethyl)phenyl]-2-(1-methylethyl)-6,7,8,9-tetrahydro-5H-pyrimido[4,5-d]azepin-4-amine]", "IC50": 0.55}, {"smiles": "CN(C)c1nc2c(c(Nc3ccc(C(F)(F)F)cc3)n1)CCN(c1ncccc1C(F)(F)F)CC2", "note": "[Example 49, N^2,N^2-Dimethyl-N^4-(4-trifluoromethyl-phenyl)-7-(3-trifluoromethyl-pyridin-2-yl)-6,7,8,9-tetrahydro-5H-pyrimido[4,5-d]azepine-2,4-diamine]", "IC50": 0.24}, {"smiles": "Cc1cc(C(F)(F)F)ccc1Nc1nc(SC2CCOC2C)nc2c1CCN(c1ncccc1C(F)(F)F)CC2", "note": "(stereo not drawn) [Example 368, 2,5-Anhydro-1,4-dideoxy-3-S-(4-{[2-methyl-4-(trifluoromethyl)phenyl]amino}-7-[3-(trifluoromethyl)pyridin-2-yl]-6,7,8,9-tetrahydro-5H-pyrimido[4,5-d]azepin-2-yl)-3-thiopentitol]", "IC50": 0.02}, {"smiles": "COc1ccc(Nc2nc(N(C)C)nc3c2CCN(c2ncccc2C(F)(F)F)CC3)cc1", "note": "[Example 81B, N^4-(4-Methoxy-phenyl)-N^2,N^2-dimethyl-7-(3-trifluoromethyl-pyridin-2-yl)-6,7,8,9-tetrahydro-5H-pyrimido[4,5-d]azepine-2,4-diamine trifluoroacetic acid salt]", "IC50": 0.97}, {"smiles": "Cc1cc(C(F)(F)F)ccc1Nc1nc(SCc2ccccc2)nc2c1CCN(c1ncccc1C(F)(F)F)CC2", "note": "[Example 364, N-[2-Methyl-4-(trifluoromethyl)phenyl]-2-[(phenylmethyl)sulfanyl]-7-[3-(trifluoromethyl)pyridin-2-yl]-6,7,8,9-tetrahydro-5H-pyrimido[4,5-d]azepin-4-amine]", "IC50": 1.18}, {"smiles": "FC(F)(F)c1cccnc1N1CCc2nc(N3CCCCCC3)nc(NCc3ccc(Cl)c(Cl)c3)c2CC1", "note": "[Example 255, 2-Azepan-1-yl-N-[(3,4-dichlorophenyl)methyl]-7-[3-(trifluoromethyl)pyridin-2-yl]-6,7,8,9-tetrahydro-5H-pyrimido[4,5-d]azepin-4-amine]", "IC50": 0.7}, {"smiles": "COC(=O)C(C)(C)c1ccc(Nc2nc(N3CCOCC3)nc3c2CCN(c2ncccc2C(F)(F)F)CC3)cc1", "note": "[Example 376, 2-Methyl-2-{4-[2-morpholin-4-yl-7-(3-trifluoromethyl-pyridin-2-yl)-6,7,8,9-tetrahydro-5H-pyrimido[4,5-d]azepin-4-ylamino]-phenyl}-propionic acid methyl ester]", "IC50": 0.11}]}, {"target": "rat TRPV1 (Rattus norvegicus (Rat), UniProt O35433)", "settings": "read-out: Rat IC50; hydrochloride salt", "units": {"IC50": "µM"}, "values": [{"smiles": "FC(F)(F)c1ccc(Nc2nc(N3CCCCC3)nc3c2CCN(c2ncccc2C(F)(F)F)CC3)cc1", "note": "[Example 39A, [2-Piperidin-1-yl-7-(3-trifluoromethyl-pyridin-2-yl)-6,7,8,9-tetrahydro-5H-pyrimido[4,5-d]azepin-4-yl]-(4-trifluoromethyl-phenyl)-amine hydrochloride salt]", "IC50": 0.023}]}]}
